Here are results for 2 compounds from US8841325B2, “Immunomodulatory compounds for the restoration of vitamin D sensitivity in vitamin D resistant tumor cells” (Celgene Corporation, priority 2009, dated 2014).

In general, inhibition of growth refers to the share of the control response that was lost under treatment. A lower inhibition of growth goes with little suppression. As usually defined, the IC50 is the concentration that inhibits the measured activity by half.

The structures appear in SMILES notation.

Type in all cases: cell-based
For experiment [1], the system named is MCF-7 cells. Kind of experiment: Cell growth by Sulphorhodamine B (SRB) assay, MCF-7. Particulars: for effect on cell growth: single agent, Thalidomide 0.01-100 μM, CC-4047 and lenalidomide 0.001-10 μM, FIG. 6B. As to the method: Cells were seeded in 24 wells plates at a density of 10^4 cells per well and allowed to adhere for 24 hours. […] Each treatment was carried out for up to 7 days, but renewed every 2 days. Cell growth was then determined by Sulphorhodamine B (SRB) assay, measuring absorbance at 550 nm.
After 6 days treatment, cells were seeded in 24 well plates at a density of 1×10^4 cells/well. After 24 h cells were treated with reagents or vehicle for up to six days. Cells were treated for up to 6 days with log doses of Thalidomide (0.1 μM up to 100 μM), pomalidomide and lenalidomide (0 μM up to 10 μM). At the end of each experiment, cells were fixed to the bottom of the well by addition of ice-cold 50% w/v trichloroacetic acid (TCA) to give a final concentration of 10% TCA. Plates were incubated at 4° C. for 30 minutes and then washed with distilled water. Plates were allowed to air-dry at room temperature before staining with 0.4% w/v SRB in 1% v/v acetic acid and incubated for 15 minutes on a shaker. The plates were then extensively washed with 1% acetic acid to remove unbound dye and were again allowed to air-dry at room temperature. Incorporated dye was solubilised with 200 μl […] Tris base. 100 μl aliquots were transferred to a 96 well plate and absorbance at 550 nm was determined

Experiment [2] has as its system MDA-MB-231 cells. Nature of the experiment: PARP cleavage assay (Western blot). As for the experimental part: Cells were plated in 75 cm^2 flasks and cultured for 6 days with 1 μl/mL DMSO (control) or 1 μM 1-oxo-2-(2,6-dioxopiperidin-3-yl)-4-aminoisoindoline and 100 nM 1,25 D3, each alone or in combination. For each time point, medium was removed and cells were washed with ice-cold PBS. Cells were then lysed with RIPA buffer (1% NP40, 0.5% sodium deoxycholate, 0.1% SDS, PBS) and the lysate was centrifuged at 13000 rpm for 20 minutes at 4° C. The supernatant was collected and an aliquot taken for measuring protein concentration. The protein estimation was determined for each lysate using the Bio-Rad DC Protein Assay Kit according to the manufacturer's instructions. The protein extract was mixed with SDS (1/4), sonicated 10 seconds, and protein concentration was determined by Bradford assay.
SDS-polyacrylamide gel electrophoresis (SDS-PAGE) was run on a Mini Trans-Blot Module apparatus (Bio-Rad). The percentage of polyacrylamide/bis-acrylamide in the resolving gel in this experiment was 12% v/v. The following reagents were used for stacking gel: 0.67 mL 30% acrylamide/bis-acrylamide; 2.7 mL H2O; 0.5 mL 1M trizma; 0.01 mL 10% ammonium persulfate; and 0.04 mL SDS. The following reagents were used for resolving gel: 3.3 mL 30% acrylamide/bis-acrylamide; 4 mL H2O; 2.5 mL 1M trizma; 0.1 mL 10% ammonium persulfate; and 0.1 mL 10% SDS.
Once the resolving gel was prepared, polymerization was initiated by addition of 10 μl N′,N′,N′,N′-teramethylethylene-diamine (TEMED). Lysates were boiled for 5 minutes and chilled on ice then loaded into the stacking gel, with volumes adjusted so that equal amounts of protein were loaded. Rainbow colored markers (Sigma Aldrich) were also added in one well to monitor the electrophoretic solution. Electrophoresis was performed at 40 mA constant current for 1 to 2 hours in running buffer (10×25 mM trizma, 192 mM glycine, 0.1% SDS).
For western blotting, the proteins were transferred from the gel onto Hybond C-Super nitrocellulose membrane (Amersham International, U.K.) in a Mini Trans-Blot apparatus (Bio-Rad) according to the manufacturer's instructions. Transfer was performed at 100 V for 1.5 to 2 hours in transfer buffer (25 mM Tris base, 192 mM glycine, 20% methanol, pH 8.2). The nitrocellulose was blocked after 1 hour with milk solution (PBS 1×, 1% Tween 20, 1% Triton X100, 5% fat-free milk). The membrane was then stained for 1 hour with the primary antibodies Total-PARP and Cleaved-PARP in the milk solution. The membrane was washed with milk solution and stained with secondary antibody (anti-rabbit from Sigma Aldrich) for 1 hour. […] The membrane was then wrapper in cling-film and placed in a cassette and, in the dark, pieces of autography film (GRI) were placed over it and left for the desired time before being put through a developer.
Cells were lysed in RIPA buffer containing 1% NP40, 0.5% sodium deoxycholate, 0.1% SDS, PBS. Equal amounts of protein (20 μg per lane) were subjected to SDS-PAGE and transferred to nitrocellulose membranes. Membranes were blocked with 5% milk in 0.05% Tween-20/TBS and then incubated with the first antibody in 0.5% milk overnight. Membranes were then incubated with the secondary anti-mouse or anti-rabbit horseradish peroxidase conjugated antibody. Bands were visualised using the enhanced chemiluminescence Western blotting detection system (ECL, Amersham, N.J., USA). Densitometric analysis was performed using Adobe Photoshop CS2. Anti-cleaved PARP and anti-total PARP antibodies (New England biolab, Cell Signalling), were used at a dilution of 1/1000 and anti-rabbit (AbCam, UK), at a dilution of 1/5000.
(§1) Cells were also treated with 0.1% DMSO as a control. […] Cells treated with 0.1% DMSO were used as a control (day 0). Cell lysates were probed for cleaved-PARP(C-PARP) and total PARP (T-PARP). Data shown are representative of three identical experiments.

Experiment [3] has as its system MDA-MB-231 cells. Nature of the experiment: Annexin V/PI staining analysed by FACS. The note with it: for necrosis and apoptosis activation (propidium iodide and Annexin V staining): 1 μM lenalidomide or 100 nM 1,25-D3 alone; for necrosis and apoptosis activation (propidium iodide and Annexin V staining) / apoptosis assessed by Annexin V or PI staining: up to 6 days; for apoptosis assessed by Annexin V or PI staining: single agent: 1 nM compound or 100 nM 1,25 D3 alone. As to the method:
Cells were seeded into 6 well plates at a density of 2×10^6 cells/well. Cells were treated with 1 μl/mL DMSO (control) or 1 nM 1-oxo-2-(2,6-dioxopiperidin-3-yl)-4-aminoisoindoline and 100 nM 1,25 D3, each alone or in combination for up to 6 days. Medium was removed by EDTA treatment, and cells were washed twice with ice-cold PBS. Cells were then resuspended into the buffer at a dilution of 1×10^6 cells/mL. 10^5 cells were then stained with Annexin V and Propidium Iodide (“PI”). Staining was analyzed by FACS. Results were expressed as the percentage of control Annexin V or PI staining where the control was cells treated with DMSO only. Results were from triplicate wells.
To assess the nature of MDA-MB-231 cell death (apoptosis or necrosis) induced by co-treatment of lenalidomide/1, 25-D3 cells were seeded into 25 cm2 flasks at a density of 2×10^6 cells/flask. […] Medium was removed by EDTA treatment and cells were washed twice with ice-cold PBS. Cells were then resuspended into the buffer at a dilution of 1×10^6 cells/ml. 10^5 cells were then stained with Annexin V and Iodure Propidium. Staining was analysed by FACS.
as §1

Where [4] appears, read: single agent: 1 μM lenalidomide or 100 nM 1,25 D3 alone, up to 6 days.

For `Nc1cccc2c1CN(C1CCC(=O)NC1=O)C2=O` (stereo not shown) [Lenalidomide, 1-oxo-2-(2,6-dioxopiperidin-3-yl)-4-aminoisoindoline], the “effect on cell growth” value is “do not Affect” in experiment [1] (up to 6 days) and “no effect” in experiment [1] (up to 6 days, listed as lenalidomide). Also, the PARP cleavage result in experiment [2] (1 μM lenalidomide in combination with 100 nM 1,25 D3, up to 6 days) is given as “starts to be cleaved after 2 days of treatment”; in experiment [2] (1 μM lenalidomide in combination with 100 nM 1,25 D3, up to 6 days, listed as 1-oxo-2-(2,6-dioxopiperidin-3-yl)-4-aminoisoindoline), “significant level of cleaved PARP”; in experiment [2] (setting [4]) it was “no effect”; in experiment [2] (single agent: 1 μM lenalidomide or 100 nM 1,25 D3 alone, up to 6 days, listed as 1-oxo-2-(2,6-dioxopiperidin-3-yl)-4-aminoisoindoline), “no PARP cleavage”. The “apoptosis assessed by Annexin V and PI staining” value in experiment [3] (1 nM compound in combination with 100 nM 1,25 D3, up to 6 days, FIG. 5) is reported as “significant increase in apoptosis”. Besides, the “Annexin V staining” value in experiment [3] (1 μM lenalidomide co-treatment with 100 nM 1,25-D3, up to 6 days, FIG. 8B) was “Annexin V staining was observed”. Further, the “necrosis and apoptosis activation (propidium iodide and Annexin V staining)” value in experiment [3] (FIG. 8B) was “no effects”. The “apoptosis assessed by Annexin V or PI staining” value in experiment [3] (FIG. 5) is listed as “no significant increase in apoptosis”.
Regarding `C=C1/C(=C\C=C2/CCC[C@]3(C)[C@@H]([C@H](C)CCCC(C)(C)O)CC[C@@H]23)C[C@@H](O)C[C@@H]1O` [1,25-D3, 1α,25-dihydroxyvitamin D3], the inhibition of growth in experiment [1] (100 nM 1,25-D3 alone, up to 6 days, FIG. 7B) was found to be 30%. Further, in experiment [1] (1,25 D3 alone, read-out: dose giving IC50 inhibition), the IC50 came to 100 nM. In addition, the PARP cleavage entry in experiment [2] (setting [4]) is “no effect”; in experiment [2] (single agent: 1 μM lenalidomide or 100 nM 1,25 D3 alone, up to 6 days, listed as vitamin D), “no PARP cleavage”. Further, in experiment [3] (FIG. 8B), the “necrosis and apoptosis activation (propidium iodide and Annexin V staining)” value is given as “no effects”. In addition, the “apoptosis assessed by Annexin V or PI staining” value in experiment [3] (FIG. 5) is listed as “no significant increase in apoptosis”.
